Assay results taken from patent US6211225A, “Heterocyclic aminopyrrolidine derivatives as melatonergic agents” (Bristol-Meyers Squibb, priority 2000, dated 2001).

Columns and labels:
[1] = biological target: T1, human melatonin ML1a receptor (Homo sapiens, UniProt P48039); experiment: Melatonergic receptor binding activity (2-[125I]-iodomelatonin binding, membranes of NIH-3T3 cells expressing ML1a); conditions: 37° C. for 1 hour, read-out: Melatonin Binding Affinity (IC50)
T1 construct: expressed in transfected cells; membrane homogenates
T1 sequence (P48039 whole entry): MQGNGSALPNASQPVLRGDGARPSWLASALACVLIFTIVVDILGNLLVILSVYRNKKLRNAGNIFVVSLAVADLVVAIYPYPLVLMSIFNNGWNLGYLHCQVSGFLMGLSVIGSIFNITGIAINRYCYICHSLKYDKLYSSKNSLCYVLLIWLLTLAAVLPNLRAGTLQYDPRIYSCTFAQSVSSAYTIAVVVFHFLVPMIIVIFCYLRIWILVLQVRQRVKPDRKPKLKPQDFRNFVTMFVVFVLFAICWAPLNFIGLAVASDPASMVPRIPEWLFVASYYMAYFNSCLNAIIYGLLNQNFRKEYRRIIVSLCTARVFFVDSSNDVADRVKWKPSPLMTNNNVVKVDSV
Method: Melatonergic Receptor Binding Activity
(a) TME=50 mM Tris buffer containing 12.5 mM MgCl2, and 2 mM EDTA, pH 7.4 at 37° C. with concentrated HCl.
(b) Wash buffer: 20 mM Tris base containing 2 mM MgCl2, pH 7.4 at room temperature.
(c) 10^-4 M melatonin (10^-5 M final concentration).
(d) 2-[^125 I]-iodomelatonin, 0.1 M final concentration
The melatonin ML1a receptor cDNA was subcloned into pcDNA3 and introduced into NIH-3T3 cells using Lipofectamine. Transformed NIH-3T3 cells resistant to geneticin (G-418) were isolated, and single colonies expressing high levels of 2[^125 I]-iodomelatonin binding were isolated. Cells are maintained in DMEM supplemented with 10% calf serum and G-418 (0.5 g/liter). Cells are grown to confluency in T-175 flasks, scraped using Hank's balanced salt solution, and frozen at -80° C. For preparing membrane homogenates, pellets are thawed on ice, and resuspended in TME buffer in the presence of 10 μg/ml aprotinin and leupeptin, and 100 ,μM phenylmethylsulfonylfluoride. The cells were then homogenized using a dounce homogenizer, and centrifuged. The resulting pellet was resuspended with dounce homogenizer in TME (supplemented with the above protease inhibitors) and frozen. On the day of assay, the small aliquot was thawed on ice and resuspended in ice cold TME (1:50-1:100 v/v) and held on ice until assayed.
37° C. for 1 hour. Reaction is terminated by filtration. Filters are washed 3 times.
^a = IC50 values for ML1a human melatonin receptor binding

[2] = test system: circadian rhythms in rats; conditions: cited from earlier work

Row | SMILES | IC50 [1] [nM] | effect of exogenous melatonin administration on circadian rhythms [2]
1 | O=C(N[C@@H]1CCN(c2cccc3c2CCO3)C1)C1CC1 [Example 10, (R)-N-[N-(2,3-dihydrobenzofuran-4-yl)-pyrrolidin-3-yl]cyclopropane carboxamide] | < 10 | 
2 | COc1ccc2[nH]cc(CCNC(C)=O)c2c1 [melatonin, N-acetyl-5-methoxytryptamine] |  | synchronize circadian rhythms in rats
3 | CCC(=O)N[C@@H]1CCN(c2cccc3c2CCO3)C1 [Example 4, (R)-N-[N-(2,3-dihydrobenzofuran-4-yl)-pyrrolidin-3-yl]propanamide] | 10 to 200 | 
4 | CC(=O)N[C@H]1CCN(c2cccc3c2OCCO3)C1 [Example 14, (S)-N-[N-(2,3-dihydro-1,4-benzodioxin-5-yl)-pyrrolidin-3-yl]acetamide] | 10 to 200 | 
5 | CCC(=O)N[C@H]1CCN(c2cccc3c2CCCO3)C1 [Example 13, (S)-N-[N-(2H-2,3-dihydrobenzopyran-5-yl)-pyrrolidin-3-yl]propanamide] | < 10 | 
6 | COCC(=O)N[C@H]1CCN(c2cccc3c2CCO3)C1 [Example 11, (S)-N-[N-(2,3-dihydrobenzofuran-4-yl)-pyrrolidin-3-yl]methoxyacetamide] | < 10 | 

Further lines, with some results ahead:

Row | IC50 [1] [nM] | SMILES | effect of exogenous melatonin administration on circadian rhythms [2]
7 | < 10 | CC(=O)N[C@H]1CCN(c2c(Cl)cc(Cl)c3c2CCO3)C1 [Example 35, (S)-N-[N-(5,7-Dichloro-2,3-Dihydrobenzofuran-4-yl)-Pyrrolidin-3-yl]Acetamide] | 
8 | < 10 | CCNC(=O)N[C@H]1CCN(c2cccc3c2CCO3)C1 [Example 20, (S)-N-[N-(2,3-dihydrobenzofuran-4-yl)-pyrrolidin-3-yl]-N'-ethyl urea] | 
9 | 10 to 200 | CCNC(=O)N[C@H]1CCN(c2cccc3c2OCCO3)C1 [Example 28, (S)-N-[N-(2,3-dihydro-1,4-benzodioxin-5-yl)-pyrrolidin-3-yl]-N'-ethyl urea] | 
10 | 10 to 200 | O=C(NC1CC1)N[C@@H]1CCN(c2cccc3c2CCO3)C1 [Example 30, (R)-N-[N-(2,3-Dihydrobenzofuran-4-yl)-Pyrrolidin-3-yl]-N'-Cylopropyl Urea] | 
11 | < 10 | CCNC(=O)N[C@@H]1CCN(c2cccc3c2CCO3)C1 [Example 21, (R)-N-[N-(2,3-dihydrobenzofuran-4-yl)-pyrrolidin-3-yl]-N'-ethyl urea] | 
12 | < 10 | CCCC(=O)N[C@H]1CCN(c2c(Cl)ccc3c2CCO3)C1 [Example 36, (S)-N-[N-(5-chloro-2,3-dihydrobenzofuran-4-yl)-pyrrolidin-3-yl]butyramide] | 
13 | 10 to 200 | CN(C)C(=O)N[C@H]1CCN(c2cccc3c2CCO3)C1 [Example 32, (S)-N-[N-(2,3-dihydrobenzofuran-4-yl)-pyrrolidin-3-yl]-N',N'-dimethyl urea] | 
